{
  "source": "patent US20110014260A1",
  "about": "“SYSTEM AND METHOD FOR LIVER CELL CULTURE AND MATURATION” (priority 2007, published 2011)",
  "type_in_all_cases": "cell-based, mouse",
  "key": {"[1]": {"test_system": "day 17 EB derived hepatocyte lineage cells (ES cell line D3)", "assay": "In situ indirect immunofluorescent intracellular albumin analysis", "parameters": "key to Intracellular ALB: A (+) represents at least one time point of significant expression or secretion function in the three conditions.; A (−) represents functions which were absent on all experimental days", "protocol": "In order to induce differentiation, cells were suspended in Iscove's modified Dulbecco's medium (Gibco) containing 20% fetal bovine serum (Gibco), 4 mM L-glutamine (Gibco), 100 U/ml penicillin, 100 U/ml streptomycin (Gibco), 10 ug/ml gentamicin (Gibco). Embryoid bodies were formed and cultured for two days using the hanging drop method (1×10^3 ES cells per 30 ul drop). Hanging drops where transferred to suspension culture in 100 mm petri dishes and cultured for an additional 2 days. The EB's were then plated, one EB per well, in 6 well tissue culture polystyrene plates (BD-Biosciences) for an additional 14 days. For secondary culture day 17 EBs cells were detached following incubation with 0.5 ml of trypsin (Gibco) for three minutes, resulting in a single cell suspension, and subsequently the addition of IMDM media. Cells from day 17 EB's were used because it has been observed that hepatocyte function is greatest on day 17. Cells were then re-plated in 6 well tissue culture polystyrene (BD-Biosciences) at an initial seeding density of 5×10^4 day 17 cells per well for further analysis. Culture medium was changed every forty eight hours. When OSM and SNAP were supplemented, 10 ng/ml OSM and 250 μM SNAP were added to the culture medium. When collagen sandwich culture was used, rat tail type I collagen (BD-Biosciences) gels were prepared by distributing 350 μL of collagen gel solution (3 parts 1.33×DMEM, pH 7.4, and 1 part collagen solution at 4 mg/mL, chilled on ice and mixed immediately prior to use) evenly over one well of a six well plate (BD-Biosciences) and incubated at 37° C. for at least one hour before use. 5×10^5 cells were seeded in 2 mL of IMDM media on day 0 and an additional 350 μL of collagen gel solution was distributed over the cells after 1 day of culture. Therefore, the second layer of collagen is added on day 1 of secondary culture protocol. One hour of incubation at 37° C. was allowed for gelation and attachment of the second gel layer before the medium was replaced. Culture medium was changed every forty eight hours. […]"}, "[2]": {"test_system": "day 17 EB derived hepatocyte lineage cells (ES cell line D3)", "assay": "Glycogen storage", "parameters": "key to Glycogen: A (+) represents at least one time point of significant expression or secretion function in the three conditions.; A (−) represents functions which were absent on all experimental days"}, "[3]": {"test_system": "day 17 EB derived hepatocyte lineage cells (ES cell line D3)", "assay": "Cell number / proliferation in secondary culture", "settings": "collagen sandwich configuration, within 10 days", "protocol": "(§1) In order to induce differentiation, cells were suspended in Iscove's modified Dulbecco's medium (Gibco) containing 20% fetal bovine serum (Gibco), 4 mM L-glutamine (Gibco), 100 U/ml penicillin, 100 U/ml streptomycin (Gibco), 10 ug/ml gentamicin (Gibco). Embryoid bodies were formed and cultured for two days using the hanging drop method (1×10^3 ES cells per 30 ul drop). Hanging drops where transferred to suspension culture in 100 mm petri dishes and cultured for an additional 2 days. The EB's were then plated, one EB per well, in 6 well tissue culture polystyrene plates (BD-Biosciences) for an additional 14 days. For secondary culture day 17 EBs cells were detached following incubation with 0.5 ml of trypsin (Gibco) for three minutes, resulting in a single cell suspension, and subsequently the addition of IMDM media. […]\nTherefore, cultures were established to study the maintenance and augmentation of hepatocyte like function previously observed after 17 days of spontaneous EB mediated differentiation. Hepatocyte lineage maintenance was initially assessed by examining the dynamics of cell growth following removal of cells from their primary EB culture and re-plating into tissue culture polystyrene. 5×10^4 cells from day 17 EB cultures were re-plated into one well of a six well plate and evaluated on days 4, 6, 8 and 10 days post re-plating. […]"}, "[4]": {"test_system": "day 17 EB derived hepatocyte lineage cells (ES cell line D3)", "assay": "In situ indirect immunofluorescent cytokeratin-18 analysis", "parameters": "key to CK18: A (+) represents at least one time point of significant expression or secretion function in the three conditions.; A (−) represents functions which were absent on all experimental days", "protocol": "as §1, with “media. Cells from day 17 EB's were used because it has been observed that hepatocyte function is greatest on day 17. Cells were then re-plated in 6 well tissue culture polystyrene (BD-Biosciences) at an initial seeding density of 5×10^4 day 17 cells per well for further analysis. Culture medium was changed every forty eight hours. When OSM and SNAP were supplemented, 10 ng/ml OSM and 250 μM SNAP were added to the culture medium.” for “media.”"}, "[5]": {"test_system": "day 17 EB derived hepatocyte lineage cells (ES cell line D3)", "assay": "Sandwich ELISA for detection of albumin secretion", "parameters": "key to ALB Secretion: A (+) represents at least one time point of significant expression or secretion function in the three conditions.; A (−) represents functions which were absent on all experimental days", "protocol": "as §1, with “media. Cells from day 17 EB's were used because it has been observed that hepatocyte function is greatest on day 17.” for “media.”\nIn order to detect secreted albumin within the media supernatants obtained on each of the analysis days, we used a commercially available mouse albumin ELISA kit (Bethyl Laboratories, #E90-134). […] Absorbance readings were obtained using a Biorad (Hercules, Calif.) Model 680 plate reader with a 450 nm emission filter. Albumin values were normalized to the cell number recorded on the day of media sample collection."}, "[6]": {"test_system": "day 17 EB derived hepatocyte lineage cells (ES cell line D3)", "assay": "Cytochrome P450 activity (resorufin o-dealkylase, BROD/MROD)", "parameters": "key to CYP450: A (+) represents at least one time point of significant expression or secretion function in the three conditions.; A (−) represents functions which were absent on all experimental days", "protocol": "On evaluation days 4, 6, 8 and 10 days in secondary culture, cells were re-plated into 12 well plates. 3-Methylcholanthrene was used at a concentration of 2 μM (Sigma-Aldrich) for 48 hours prior to the addition of resorufin as an inducer of cytochrome P450 activities. Cytochrome P450-dependent resorufin o-dealkylase activity (BROD, PROD, EROD, and MROD) was measured using resorufin substrates namely pentoxy-, benzyloxy-, ethoxy-, and methoxyresorufin from a Resorufin Sampler Kit (Invitorgen, Carlsbad, Calif.). […] The fluorescence of the plate was measured using a fluorescence plate reader (DTX880, Beckman Coltour, Fullerton, Calif., ext. 530 nm and emis. 590 nm) at the end of min incubation. A standard curve of resorufin fluorescence was constructed using concentrations ranging from 1 to 1,000 nmol in EBSS. […] The constructed standard curve was used to convert the fluorescence values obtained from the plate reader to nanomoles of resorufin. Rate of formation of resorufin, as calculated from the early linear increase in the fluorescence curve, was defined as cytochrome P450 activity and expressed as nmol/min.\nCytochrome P450 enzymes play a key role in detoxifying xenobiotics and were used in these studies to asses hepatocyte function. […] BROD and MROD activity can be determined from the enzymatic conversion of resorufin."}, "[7]": {"test_system": "day 17 EB derived hepatocyte lineage cells (ES cell line D3)", "assay": "Urea secretion", "parameters": "key to Urea: A (+) represents at least one time point of significant expression or secretion function in the three conditions.; A (−) represents functions which were absent on all experimental days", "protocol": "as §1, with “media. Cells from day 17 EB's were used because it has been observed that hepatocyte function is greatest on day 17. Cells were then re-plated in 6 well tissue culture polystyrene (BD-Biosciences) at an initial seeding density of 5×10^4 day 17 cells per well for further analysis.” for “media.”\nMedia samples were collected on all analysis days. […] Absorbance readings were obtained using a Biorad (Hercules, Calif.) Model 680 plate reader with a 585 nm emission filter. Urea values were normalized to the cell number recorded on the day of media sample collection."}, "[8]": {"settings": "polystyrene secondary culture, 10 ng/ml OSM or 250 μM SNAP, days 4-10"}, "[9]": {"settings": "polystyrene culture, OSM or SNAP supplemented"}},
  "data": [
    {"substance": "Oncostatin-M [OSM]", "values": [
      {"measurement": "albumin expression (percentage of cells expressing albumin)", "setting": "[1]; collagen sandwich culture, 10 days post re-plating", "value": 80, "unit": "%"},
      {"measurement": "Intracellular ALB", "setting": "[1]; [8]", "value": "+"},
      {"measurement": "Time for which ALB expression was maintained", "setting": "[1]; polystyrene secondary/tertiary culture, supplemented, SNAP at a lower level", "value": "up to eight"},
      {"measurement": "glycogen storage", "setting": "[2]; [9]", "value": "not detected at any level"},
      {"measurement": "Glycogen", "setting": "[2]; [8]", "value": "−"},
      {"measurement": "cell number reached from 5×10^4 Day 17 cells", "setting": "[3]", "value": "1×10^6 cells"},
      {"measurement": "CK18 expression", "setting": "[4]; [9]", "value": "not detected at any level"},
      {"measurement": "CK18", "setting": "[4]; [8]", "value": "−"},
      {"measurement": "albumin secretion", "setting": "[5]; [9]", "value": "not detected at any level"},
      {"measurement": "ALB Secretion", "setting": "[5]; [8]", "value": "−"},
      {"measurement": "CYP450 mediated detoxification", "setting": "[6]; [9]", "value": "not detected at any level"},
      {"measurement": "CYP450", "setting": "[6]; [8]", "value": "−"},
      {"measurement": "Urea secretion time course", "setting": "[7]; polystyrene culture, supplemented", "value": "greatest at day eight"},
      {"measurement": "Urea", "setting": "[7]; [8]", "value": "+"}
    ]}
  ]
}
